In patent US9012489B2, “Phenyl-3-aza-bicyclo[3.1.0]hex-3-yl-methanones and the use thereof as medicament” (Boehringer Ingelheim International GmbH, priority 2011, dated 2015) one finds IC50 data, which are given here for 21 molecules.

What is called IC50 is the midpoint of a concentration-inhibition curve.

The test has as its target T1, GlyT1 transporter (Homo sapiens, UniProt P48067).
T1 construct: endogenously expressing the GlyT1 transporter; host or cells: SK-N-MC human neuroblastoma cells
T1 sequence (P48067 1-706): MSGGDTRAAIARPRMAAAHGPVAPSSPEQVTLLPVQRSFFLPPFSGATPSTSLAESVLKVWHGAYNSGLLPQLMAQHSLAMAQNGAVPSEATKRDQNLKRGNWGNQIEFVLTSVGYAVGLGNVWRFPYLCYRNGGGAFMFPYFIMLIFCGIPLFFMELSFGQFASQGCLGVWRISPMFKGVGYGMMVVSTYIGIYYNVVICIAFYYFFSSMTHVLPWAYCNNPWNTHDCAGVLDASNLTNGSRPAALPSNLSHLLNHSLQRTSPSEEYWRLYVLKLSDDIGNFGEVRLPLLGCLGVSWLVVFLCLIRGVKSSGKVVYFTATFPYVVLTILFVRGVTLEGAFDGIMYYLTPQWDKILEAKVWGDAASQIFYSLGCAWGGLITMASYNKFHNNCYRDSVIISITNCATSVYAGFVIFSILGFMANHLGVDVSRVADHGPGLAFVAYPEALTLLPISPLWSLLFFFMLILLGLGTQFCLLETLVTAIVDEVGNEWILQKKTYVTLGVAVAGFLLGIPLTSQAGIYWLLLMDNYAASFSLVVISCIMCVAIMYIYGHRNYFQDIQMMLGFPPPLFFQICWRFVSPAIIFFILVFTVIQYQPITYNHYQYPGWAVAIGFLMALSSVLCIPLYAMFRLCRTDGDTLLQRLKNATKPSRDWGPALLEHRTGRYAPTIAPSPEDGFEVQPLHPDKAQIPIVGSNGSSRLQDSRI
In words: GlyT1 assay: 3H-glycine uptake into SK-N-MC cells (Cytostar-T format). The format is cell-based. Conditions: glycine uptake in human SK-N-MC cells endogenously expressing GlyT1; 500 nM glycine, 1% DMSO, signal recorded over 60 min. An outline of the steps:
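Endogenous GlyT1 in human SK-N-MC cells, confluent after 16-18 h, in HBSS with 5 mM alanine. Compounds preincubated about 5-10 min, then 500 nM glycine (half ³H) added, 1% DMSO. Scintillation-proximity uptake recorded kinetically over 60 min; IC50 from linear-range slopes over 8 concentrations, nonspecific uptake defined with 10 μM RG-1678.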
For the molecule `C[C@@H](Oc1ccc(S(C)(=O)=O)cc1C(=O)N1CC2CC2(c2noc(C3(C(F)(F)F)CC3)n2)C1)C(F)(F)F` (single isomer, unassigned) [Example 69, [5-Methanesulfonyl-2-(2,2,2-trifluoro-1-methyl-ethoxy)-phenyl]-{1-[5-(1-trifluoromethyl-cyclopropyl)-[1,2,4]oxadiazol-3-yl]-3-aza-bicyclo[3.1.0]hex-3-yl}-methanone], inhibition was half-maximal at 3 nM (IC50). In other words, the single-digit nanomolar range.

As for `Cc1c(C23CC2CN(C(=O)c2cc(S(C)(=O)=O)ccc2O[C@@H](C)C(F)(F)F)C3)noc1C(F)(F)F` (single isomer, unassigned) [Example 164], 28 nM corresponded to half-maximal inhibition (IC50).

As to `CCS(=O)(=O)c1ccc(O[C@@H](C)C(F)(F)F)c(C(=O)N2CC3CC3(c3cc(C(F)(F)F)on3)C2)c1` (single isomer, unassigned) [Example 103, [5-Ethanesulfonyl-2-(2,2,2-trifluoro-1-methyl-ethoxy)-phenyl]-[1-(5-trifluoromethyl-isoxazol-3-yl)-3-aza-bicyclo[3.1.0]hex-3-yl]-methanone], the IC50 amounted to 7 nM.

`C[C@H](Oc1ccc(S(C)(=O)=O)cc1C(=O)N1CC2CC2(c2nc(C(F)(F)F)no2)C1)C(F)(F)F` (mixture of isomers) [Example 36, [5-Methanesulfonyl-2-(2,2,2-trifluoro-1-methyl-ethoxy)-phenyl]-[1-(3-trifluoromethyl-[1,2,4]oxadiazol-5-yl)-3-aza-bicyclo[3.1.0]hex-3-yl]-methanone] yielded an IC50 of 62 nM.

`CC(C)Oc1ccc(S(C)(=O)=O)cc1C(=O)N1CC2CC2(c2nc(C3(C(F)(F)F)CC3)no2)C1` (racemic) [Example 154, (2-Isopropoxy-5-methanesulfonyl-phenyl)-{1-[3-(1-trifluoromethyl-cyclopropyl)-[1,2,4]oxadiazol-5-yl]-3-aza-bicyclo[3.1.0]hex-3-yl}-methanone] displayed a concentration for half-maximal inhibition (IC50) of 72 nM.

`C[C@@H](Oc1ccc(S(C)(=O)=O)cc1C(=O)N1CC2CC2(c2nccc(C(F)(F)F)n2)C1)C(F)(F)F` (mixture of isomers) [Example 72, [5-Methanesulfonyl-2-(2,2,2-trifluoro-1-methyl-ethoxy)-phenyl]-[1-(4-trifluoromethyl-pyrimidin-2-yl)-3-aza-bicyclo[3.1.0]hex-3-yl]-methanone] displayed an IC50 of 17 nM.

On to `CCS(=O)(=O)c1ccc(O[C@H](C)C(F)(F)F)c(C(=O)N2CC3CC3(c3nccc(C(F)(F)F)n3)C2)c1` (single isomer, unassigned) [Example 77, [5-Ethanesulfonyl-2-(2,2,2-trifluoro-1-methyl-ethoxy)-phenyl]-[1-(4-trifluoromethyl-pyrimidin-2-yl)-3-aza-bicyclo[3.1.0]hex-3-yl]-methanone], for which the IC50 stood at 113 nM.

For the molecule `C[C@H](Oc1ccc(S(C)(=O)=O)cc1C(=O)N1CC2CC2(c2noc(C(F)(F)F)n2)C1)C(F)(F)F` (mixture of isomers) [Example 1, [5-Methanesulfonyl-2-(2,2,2-trifluoro-1-methyl-ethoxy)-phenyl]-[1-(5-trifluoromethyl-[1,2,4]oxadiazol-3-yl)-3-aza-bicyclo[3.1.0]hex-3-yl]-methanone], the IC50 was determined as 39 nM.

In turn, `C[C@H](Oc1ccc(S(C)(=O)=O)cc1C(=O)N1CC2CC2(C2=NCC(C(F)(F)F)O2)C1)C(F)(F)F` (mixture of isomers) [Example 57, [5-Methanesulfonyl-2-(2,2,2-trifluoro-1-methyl-ethoxy)-phenyl]-[1-(5-trifluoromethyl-4,5-dihydro-oxazol-2-yl)-3-aza-bicyclo[3.1.0]hexyl-3-yl]-methanone] yielded an IC50 of 354 nM.

`CCS(=O)(=O)c1ccc(O[C@@H](C)C(F)(F)F)c(C(=O)N2CC3CC3(c3nccc(C(F)(F)F)n3)C2)c1` (single isomer, unassigned) [Example 74, [5-Ethanesulfonyl-2-(2,2,2-trifluoro-1-methyl-ethoxy)-phenyl]-[1-(4-trifluoromethyl-pyrimidin-2-yl)-3-aza-bicyclo[3.1.0]hex-3-yl]-methanone] displayed an IC50 of 4 nM.

For the molecule `C[C@@H](Oc1ccc(S(C)(=O)=O)cc1C(=O)N1CC2CC2(c2noc(C3CC3)n2)C1)C(F)(F)F` (single isomer, unassigned) [Example 45, [1-(5-Cyclopropyl-[1,2,4]oxadiazol-3-yl)-3-aza-bicyclo[3.1.0]hex-3-yl]-[5-methanesulfonyl-2-(2,2,2-trifluoro-1-methyl-ethoxy)-phenyl]-methanone], the midpoint of inhibition, the IC50, lay at 2 nM.

The molecule `C[C@H](Oc1ccc(S(C)(=O)=O)cc1C(=O)N1CC2CC2(c2cn3ccccc3n2)C1)C(F)(F)F` (mixture of isomers) [Example 24, (1-Imidazo[1,2-a]pyridin-2-yl-3-aza-bicyclo[3.1.0]hex-3-yl)-[5-methanesulfonyl-2-(2,2,2-trifluoro-1-methyl-1-ethoxy)-phenyl]-methanone] returned a concentration for half-maximal inhibition (IC50) of 911 nM.

`CCS(=O)(=O)c1ccc(O[C@H](C)C(F)(F)F)c(C(=O)N2CC3CC3(c3cc(C(F)(F)F)on3)C2)c1` (mixture of isomers) [Example 105, [5-Ethanesulfonyl-2-(2,2,2-trifluoro-1-methyl-ethoxy)-phenyl]-[1-(5-trifluoromethyl-isoxazol-3-yl)-3-aza-bicyclo[3.1.0]hex-3-yl]-methanone]: the IC50 came out at 7 nM.

`C[C@H](Oc1ccc(S(C)(=O)=O)cc1C(=O)N1CC2CC2(c2noc(C3(C)CC3)n2)C1)C(F)(F)F` (mixture of isomers) [Example 134, [5-Methanesulfonyl-2-(2,2,2-trifluoro-1-methyl-ethoxy)-phenyl]-{1-[5-(1-methyl-cyclopropyl)-[1,2,4]oxadiazol-3-yl]-3-aza-bicyclo[3.1.0]hex-3-yl}-methanone] gave an IC50 of 8 nM.

`C[C@H](Oc1ccc(S(C)(=O)=O)cc1C(=O)N1CC2CC2(c2csc(C(F)(F)F)n2)C1)C(F)(F)F` (single isomer, unassigned) [Example 28, [5-Methanesulfonyl-2-(2,2,2-trifluoro-1-methyl-ethoxy)-phenyl]-[1-(2-trifluoromethyl-thiazol-4-yl)-3-aza-bicyclo[3.1.0]hex-3-yl]-methanone] yielded an IC50 of 1440 nM. Compared with the last molecule, the IC50 is about 180-fold higher.

The molecule `C[C@@H](Oc1ccc(S(C)(=O)=O)cc1C(=O)N1CC2CC2(c2csc(C(F)(F)F)n2)C1)C(F)(F)F` (single isomer, unassigned) [Example 31, [5-Methanesulfonyl-2-(2,2,2-trifluoro-1-methyl-ethoxy)-phenyl]-[1-(2-trifluoromethyl-thiazol-4-yl)-3-aza-bicyclo[3.1.0]hex-3-yl]-methanone] had a 50% inhibitory concentration (IC50) of 1010 nM.

Molecule `C[C@@H](Oc1ccc(S(C)(=O)=O)cc1C(=O)N1CC2CC2(c2nnc(C3(C(F)(F)F)CC3)o2)C1)C(F)(F)F` (single isomer, unassigned) [Example 149, [5-Methanesulfonyl-2-(2,2,2-trifluoro-1-methyl-ethoxy)-phenyl]-{1-[5-(1-trifluoromethyl-cyclopropyl)-[1,3,4]oxadiazol-2-yl]-3-aza-bicyclo[3.1.0]hex-3-yl}-methanone] had an IC50 of 8 nM. Compared with the last molecule, the IC50 is about 130-fold lower.

As for `C[C@@H](Oc1ccc(S(C)(=O)=O)cc1C(=O)N1CC2CC2(c2nnc(C3(C(F)(F)F)CC3)o2)C1)C(F)(F)F` (mixture of isomers) [Example 148, [5-Methanesulfonyl-2-(2,2,2-trifluoro-1-methyl-ethoxy)-phenyl]-{1-[5-(1-trifluoromethyl-cyclopropyl)-[1,3,4]oxadiazol-2-yl]-3-aza-bicyclo[3.1.0]hex-3-yl}-methanone], 9 nM corresponded to half-maximal inhibition (IC50).

Regarding `C[C@@H](Oc1ccc(S(C)(=O)=O)cc1C(=O)N1CC2CC2(c2nccc(C(F)(F)F)n2)C1)C(F)(F)F` (single isomer, unassigned) [Example 19, [5-Methanesulfonyl-2-(2,2,2-trifluoro-1-methyl-ethoxy)-phenyl]-[1-(4-trifluoromethyl-pyrimidin-2-yl)-3-aza-bicyclo[3.1.0]hex-3-yl]-methanone], the IC50 was 5 nM.

Molecule `C[C@H](Oc1ccc(S(C)(=O)=O)cc1C(=O)N1CC2CC2(c2noc(C(F)(F)F)n2)C1)C(F)(F)F` (single isomer, unassigned) [Example 2, [5-Methanesulfonyl-2-(2,2,2-trifluoro-1-methyl-ethoxy)-phenyl]-[1-(5-trifluoromethyl-[1,2,4]oxadiazol-3-yl)-3-aza-bicyclo[3.1.0]hex-3-yl]-methanone] gave a half-inhibitory concentration (IC50) of 18 nM.

In turn, `C[C@H](Oc1ccc(S(C)(=O)=O)cc1C(=O)N1CC2CC2(c2nnc(C3(C(F)(F)F)CC3)o2)C1)C(F)(F)F` (single isomer, unassigned) [Example 153, [5-Methanesulfonyl-2-(2,2,2-trifluoro-1-methyl-ethoxy)-phenyl]-{1-[5-(1-trifluoromethyl-cyclopropyl)-[1,3,4]oxadiazol-2-yl]-3-aza-bicyclo[3.1.0]hex-3-yl}-methanone] yielded an IC50 of 1200 nM.
